pEC50: −log10 of the molar value.
Experiments:
Assay type in all cases: cell-based
human GPR40 = target: T1, human GPR40 (Homo sapiens, UniProt O14842); test: GPR40 calcium flux assay, human GPR40; details: HEK293 cells stably expressing GPR40; table does not say human or rat
T1 construct: expressed in transfected cells
Summary of the method: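 Cells preincubated 1 h at 37° C. in HBSS, 20 mM HEPES, 0.1% BSA, then Fluo 8 calcium dye 30 min at 37° C. and 15 min at room temperature.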

Human GPR120 short form [1] = target: T2, Human GPR120 short form (Homo sapiens, UniProt Q5NUL3); test: Human GPR120 calcium flux assay, Procedure Calcium A (2500 cells/well)
T2 construct: expressed in transfected cells
T2 sequence (Q5NUL3 1-361): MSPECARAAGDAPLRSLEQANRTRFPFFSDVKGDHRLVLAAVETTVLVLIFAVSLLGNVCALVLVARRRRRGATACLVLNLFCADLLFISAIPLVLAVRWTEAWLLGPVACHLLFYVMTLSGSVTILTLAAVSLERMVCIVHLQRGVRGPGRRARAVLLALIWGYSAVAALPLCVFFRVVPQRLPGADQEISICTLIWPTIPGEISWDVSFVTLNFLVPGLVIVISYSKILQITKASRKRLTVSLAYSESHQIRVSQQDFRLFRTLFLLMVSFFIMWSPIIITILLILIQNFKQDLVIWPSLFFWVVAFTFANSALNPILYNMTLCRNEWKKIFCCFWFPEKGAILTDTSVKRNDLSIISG
Excerpt: Human GPR120 in Calcium Flux Assay
This in vitro assay serves to assess test compound agonist activity against the short splice variant (SVS with Accession number NM_001195755.1 confirmed by sequencing data) of the GPR120 receptor. The Human Short splice variant #2 (NM_001195755.1) is missing an in-frame coding exon compared to variant 1 (the Human Long splice variant NM_181745.3), resulting in a shorter isoform (GPR120-S) lacking a 16 aa protein segment compared to isoform GPR120-L. The assay platform utilizes HEK-293 cells stably transfected to express the Human GPR120 short form. These cells are first loaded with the Ca^+2 sensitive dye, Fluo-4 NW. Upon stimulation, intracellular released Ca^+2 can bind to the dye and alter its fluorescence intensity. This increase in fluorescence signal, and thus the flux in intracellular [Ca^2+], is detected and quantitated by fluorescence imaging using a FLIPR reader. The effect of the agonist is measured as a function of concentration and used to calculate an EC50 based upon a response curve.
In this procedure 2500 cells/well were employed.
A Human GPR120 clone (Genbank accession number NM_001195755.1) was placed into the pcDNA3.1 mammalian expression vector carrying the neomycin resistance gene. A stable mammalian cell was generated by placing the above clone into a HEK293 background. Clonal cells responding to long chain fatty acids had expression levels of GPR120 confirmed by RT-qPCR. Human HEK-GPR120 cells were cultured in Dulbecco's Modified Eagle's Medium (DMEM)/F12 medium supplemented with 10% fetal bovine serum (FBS), 1% L-Glutamine and 1% penicillin/streptomycin and 0.5 mg/ml G-418. Cells were split 2 times a week to keep the cells in the log-phase growth.
In preparation for the assay, HEK cells stably transfected with Human GPR120 (2.5K cells per well in 25 uL growth medium) were seeded into 384-well plates and then incubated overnight (37° C., 5% CO2). The next day, the media was changed to 20 μL assay buffer and the cell starved for 1 h at 37° C. The dye loading solution (2× dye) was prepared using 10 mL assay buffer, 100 μL of 250 mM probenecid, 1 bottle of Component A, and 20 μl of dye in DMSO. Twenty μL of the 2× dye loading buffer was then added to each well. The plates were incubated at 37° C. for 30 min, then at room temperature for an additional 15 minutes, before performing the assay on FLIPR.
The assay was performed on a FLIPR plate reader using the following parameters. Baseline was read for 10 seconds at 1 sec intervals. The program was set to transfer 10 μL of ligand from compound plate to cell plate after baseline reading. Aspiration was executed at: 10 μL/sec speed, 4.6 μL height, Dispensing was executed at: 30 μL/sec speed, 45 μL height. After compound addition, each well was read for 300 sec, with measurements collected at 1 sec intervals.
The kinetic data from the FLIPR was based upon a 5 minute window for data collection. The fluorescence of each sample well was used for individual calculations of a normalized RFU value, which was defined as maximum response minus the minimum response. The normalized fluorescence reading (RFU) was calculated as follows: RFU=Fmax−Fmin
The Fitting Equation was: Y=Bottom+(Top-Bottom)/(1+10^((Log EC50−X)*HillSlope)), where X is the log of the concentration and Y is the response.

Human GPR120 short form [2] = target: T2, Human GPR120 short form; test: Human GPR120 calcium flux assay, Procedure Calcium B (4200 cells/well)
Summary of the method: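 Agonist EC50 came from a four-parameter fit of RFU (Fmax−Fmin) read over 300 s on FLIPR. Cells were HEK293 stably transfected with human GPR120 (NM_001195755.1) at 4200 per well, serum-starved 1 h and loaded with Fluo-4 NW dye with probenecid before ligand addition.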

[3] = target: T3, long form of human GPR120 (Homo sapiens, UniProt Q5NUL3); test: Human GPR120 DiscoveRx PathHunter Beta-Arrestin assay, Procedure β-arrestin A
T3 construct: host or cells: PathHunter CHO-K1 GPR120 β-Arrestin Cell Line
Summary of the method: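 PathHunter CHO-K1 cells expressing long-form human GPR120 (3000/well) were seeded overnight. They were then preincubated 60 min in HBSS with 20 mM HEPES and 0.1% BSA, pH 7.4, and exposed to compound for 90 min at 37 °C. β-Arrestin recruitment was read as β-gal complementation luminescence. EC50 came from % activity versus positive control, Hill slope fixed at 1.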

T3 sequence (Q5NUL3 1-377 isoform Q5NUL3-1): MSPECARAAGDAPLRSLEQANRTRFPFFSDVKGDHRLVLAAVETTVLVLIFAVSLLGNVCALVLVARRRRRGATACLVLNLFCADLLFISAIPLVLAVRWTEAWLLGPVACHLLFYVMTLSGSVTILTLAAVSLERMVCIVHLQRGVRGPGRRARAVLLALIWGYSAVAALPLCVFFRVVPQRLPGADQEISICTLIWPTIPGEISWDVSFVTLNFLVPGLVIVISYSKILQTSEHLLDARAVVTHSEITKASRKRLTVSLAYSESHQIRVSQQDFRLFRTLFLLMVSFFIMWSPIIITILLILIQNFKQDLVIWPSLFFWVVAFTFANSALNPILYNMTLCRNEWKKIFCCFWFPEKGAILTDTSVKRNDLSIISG
T3 sequence (P32121 whole entry partner): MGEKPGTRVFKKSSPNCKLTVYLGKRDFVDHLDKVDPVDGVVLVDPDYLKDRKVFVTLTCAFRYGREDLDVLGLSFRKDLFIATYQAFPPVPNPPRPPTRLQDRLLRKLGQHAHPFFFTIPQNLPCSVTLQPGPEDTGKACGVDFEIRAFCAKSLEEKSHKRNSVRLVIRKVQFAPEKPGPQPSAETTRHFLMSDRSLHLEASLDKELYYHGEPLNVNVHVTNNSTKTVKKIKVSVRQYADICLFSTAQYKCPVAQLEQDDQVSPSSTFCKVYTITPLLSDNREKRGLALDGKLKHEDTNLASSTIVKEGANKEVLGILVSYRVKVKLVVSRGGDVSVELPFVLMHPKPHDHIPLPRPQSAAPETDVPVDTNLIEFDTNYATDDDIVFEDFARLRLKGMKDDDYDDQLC
T1 sequence (O14842 whole entry): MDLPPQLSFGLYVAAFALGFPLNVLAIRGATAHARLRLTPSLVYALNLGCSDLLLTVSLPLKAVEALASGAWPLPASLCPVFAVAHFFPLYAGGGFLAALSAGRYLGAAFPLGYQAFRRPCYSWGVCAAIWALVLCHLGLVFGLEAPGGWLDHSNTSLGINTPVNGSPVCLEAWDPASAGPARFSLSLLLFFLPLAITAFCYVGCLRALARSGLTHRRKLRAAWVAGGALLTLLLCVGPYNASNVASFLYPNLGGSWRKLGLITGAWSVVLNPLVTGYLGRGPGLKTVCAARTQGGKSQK

Row | pEC50 (human GPR40) | pEC50 (Human GPR120 short form [1]) | pEC50 (Human GPR120 short form [2]) | pEC50 [3] | SMILES
1 | < 5.30 | < 4.70 | – | – | COc1ccc(C2=C(COc3ccc(CCC(=O)O)c(C)c3C)CCC2)cc1 [Compound 21, 3-(4-((2-(4-methoxyphenyl)cyclopent-1-en-1-yl)methoxy)-2,3-dimethylphenyl)Propanoic Acid]
2 | < 5.30 | < 4.70 | – | – | Cc1c(CCC(=O)O)ccc(OCC2=C(c3ccsc3)CCC2)c1C [Compound 22, 3-(2,3-dimethyl-4-((2-(thiophen-3-yl)cyclopent-1-en-1-yl)methoxy)phenyl)Propanoic Acid]
3 | < 5.30 | < 4.70 | – | – | O=C(O)CCc1ccc(OCC2=C(c3ccc(Cl)cc3)CCC2O)c(F)c1F (centres unmarked) [Compound 45]
4 | – | < 4.70 | – | – | CC(=O)Nc1ccc(C2=C(COc3ccc(CCC(=O)O)c(C)c3C)CCC2)cc1 [Compound 51, 3-[4-[[2-(4-acetamidophenyl)cyclopenten-1-yl]methoxy]-2,3-dimethyl-phenyl]Propanoic Acid]
5 | < 5.00 | < 4.70 | – | – | Cc1c(CCC(=O)O)ccc(OCC2=C(c3ccc(S(C)(=O)=O)cc3)CCC2)c1C [Compound 74, 3-[2,3-dimethyl-4-[[2-(4-methylsulfonylphenyl)cyclopenten-1-yl]methoxy]phenyl]Propanoic Acid]
6 | < 5.30 | < 5.30 | – | – | COc1cc(C2=C(COc3ccc(CCC(=O)O)c(C)c3C)CCC2)ccc1C [Compound 113, 3-(4-((2-(3-methoxy-4-methylphenyl)cyclopent-1-en-1-yl)methoxy)-2,3-dimethylphenyl)Propanoic Acid]
7 | – | < 5.30 | – | – | Cc1c(CCC(=O)O)ccc(OCC2=C(c3ccc([S+](C)[O-])cc3)CCC2)c1C (centres unmarked) [Compound 120, 3-[2,3-dimethyl-4-[[2-(4-methylsulfinylphenyl)cyclopenten-1-yl]methoxy]phenyl]Propanoic Acid]
8 | – | 5.61 | 5.61 | – | Cc1c(CCC(=O)O)ccc(OCC2=C(c3ccncc3)CCC2)c1C [Compound 139, 3-[2,3-dimethyl-4-[[2-(4-pyridyl)cyclopenten-1-yl]methoxy]phenyl]Propanoic Acid]
9 | – | 5.65 | 5.87 | – | CCOc1ccc(C2=C(COc3ccc(CCC(=O)O)c(C)c3C)CCCC2)cc1 [Compound 461, 3-[4-[[2-(4-ethoxyphenyl)cyclohexen-1-yl]methoxy]-2,3-dimethyl-phenyl]Propanoic Acid]
10 | – | 5.87 | 5.90 | – | Cc1c(CCC(=O)O)ccc(OCC2=C(c3ccccc3Cl)CCCC2)c1C [Compound 464, 3-[4-[[2-(2-chlorophenyl)cyclohexen-1-yl]methoxy]-2,3-dimethyl-phenyl]Propanoic Acid]
11 | – | 5.35 | 5.84 | – | Cc1c(CCC(=O)O)ccc(OCC2=C(c3ccc(OC(F)(F)F)cc3)CCCC2)c1C [Compound 466, 3-[2,3-dimethyl-4-[[2-[4-(trifluoromethoxy)phenyl]cyclohexen-1-yl]methoxy]phenyl]Propanoic Acid]
12 | 5.63 | – | 6.12 | 5.78 | Cc1cc(CCC(=O)O)ccc1OCC1=C(c2cnn(C)c2)CCC(F)(F)C1 [Compound 546, 3-[4-[[5,5-difluoro-2-(1-methylpyrazol-4-yl)cyclohexen-1-yl]methoxy]-3-methyl-phenyl]Propanoic Acid]
13 | 5.46 | – | 6.30 | 5.87 | Cc1cc(CCC(=O)O)ccc1OCC1=C(c2cncs2)CCC(F)(F)C1 [Compound 548, 3-[4-[(5,5-difluoro-2-thiazol-5-yl-cyclohexen-1-yl)methoxy]-3-methyl-phenyl]Propanoic Acid]
14 | 6.19 | – | 6.32 | 6.36 | Cc1ncc(C2=C(COc3ccc(CCC(=O)O)cc3C)CC(F)(F)CC2)s1 [Compound 550, 3-[4-[[5,5-difluoro-2-(2-methylthiazol-5-yl)cyclohexen-1-yl]methoxy]-3-methyl-phenyl]Propanoic Acid]
15 | 5.63 | – | 6.28 | 6.14 | Cc1ncc(C2=C(COc3ccc(CCC(=O)O)c(C)c3C)CC(F)(F)CC2)s1 [Compound 553, 3-[4-[[5,5-difluoro-2-(2-methylthiazol-5-yl)cyclohexen-1-yl]methoxy]-2,3-dimethyl-phenyl]Propanoic Acid]
16 | < 5.30 | – | 6.42 | 5.88 | Cc1c(CCC(=O)O)ccc(OCC2=C(c3ccc(C#N)s3)CCC(F)(F)C2)c1C [Compound 558, 3-[4-[[2-(5-cyano-2-thienyl)-5,5-difluoro-cyclohexen-1-yl]methoxy]-2,3-dimethyl-phenyl]Propanoic Acid]
17 | 5.39 | – | 6.93 | 6.76 | Cc1cc(CCC(=O)O)ccc1OCC1=C(c2cccs2)CCC(F)(F)C1 [Compound 560, 3-[4-[[5,5-difluoro-2-(2-thienyl)cyclohexen-1-yl]methoxy]-3-methyl-phenyl]Propanoic Acid]
18 | < 5.30 | – | 6.92 | 6.61 | Cc1ccc(C2=C(COc3c(F)cc(CCC(=O)O)cc3F)CC(F)(F)CC2)s1 [Compound 562, 3-[4-[[5,5-difluoro-2-(5-methyl-2-thienyl)cyclohexen-1-yl]methoxy]-3,5-difluoro-phenyl]Propanoic Acid]
19 | 5.48 | – | 6.78 | 6.68 | Cc1cc(CCC(=O)O)ccc1OCC1=C(c2ccc(Cl)cc2)CC(F)(F)CC1 [Compound 566, 3-[4-[[2-(4-chlorophenyl)-4,4-difluoro-cyclohexen-1-yl]methoxy]-3-methyl-phenyl]Propanoic Acid]
20 | < 5.30 | – | 6.52 | 6.28 | O=C(O)CCc1cc(F)c(OCC2=C(c3ccco3)CCC(F)(F)C2)c(F)c1 [Compound 569, 3-[4-[[5,5-difluoro-2-(2-furyl)cyclohexen-1-yl]methoxy]-3,5-difluoro-phenyl]Propanoic Acid]
21 | < 5.30 | – | 6.19 | 6.00 | N#Cc1ccc(C2=C(COc3c(F)cc(CCC(=O)O)cc3F)CC(F)(F)CC2)s1 [Compound 572, 3-[4-[[2-(5-cyano-2-thienyl)-5,5-difluoro-cyclohexen-1-yl]methoxy]-3,5-difluoro-phenyl]Propanoic Acid]
22 | 5.35 | – | 6.35 | 6.19 | Cc1cc(CCC(=O)O)ccc1OCC1=C(c2ccc(C#N)s2)CCC(F)(F)C1 [Compound 573, 3-[4-[[2-(5-cyano-2-thienyl)-5,5-difluoro-cyclohexen-1-yl]methoxy]-3-methyl-phenyl]Propanoic Acid]

From patent US11230526B1, “Cylcoalkenyl derivatives useful as agonists of the GPR120 and/or GPR40 receptors” (Janssen Pharmaceutica NV, priority 2018, dated 2022)
